In patent US11371055B2, “Herbicide resistance genes” (CORTEVA AGRISCIENCE LLC, priority 2005, dated 2022):
Marks after values point to notes of the source that are not given here.

Tests used:
[1] = test system: Untransformed control corn (5XH751×Hi II); assay: Brace root injury of untransformed control corn after 2,4-D DMA; type: in vivo, Zea mays; settings: 2240 g ae/ha 2,4-D DMA, V3-V4 stage, 14DAT
Source text: T1 AAD-12 (v1) seed were planted into 3-inch pots containing Metro Mix media and at 2 leaf stage were sprayed with 70 g ae/ha imazethapyr to eliminate nulls. Surviving plants were transplanted to 1-gallon pots containing Metro Mix media and placed in the same growth conditions as before. At V3-V4 stage the plants were sprayed in the track sprayer set to 187 L/ha at either 560 or 2240 g ac/ha 2,4-D DMA. Plants were graded at 3 and 14 DAT and compared to 5XH751×Hi II control plants. A grading scale of 0-10 (no injury to extreme auxin injury) was developed to distinguish brace root injury. Brace Root grades were taken on 14DAT to show 2,4-D tolerance. 2,4-D causes brace root malformation, and is a consistent indicator of auxinic herbicide injury in corn. […] Event “pDAB4101(0)001.001” was apparently unstable; however, the other two events were robustly tolerant to 2,4-D and 2,4-D+imazethapyr or 2,-4D+glyphosate (see Table 16).

[2] = test system: untransformed control canola plants; assay: 2,4-D DMA tolerance, untransformed canola control; type: in vivo, Brassica napus
Source text: Surviving plants were transplanted into 3-inch pots containing Metro Mix media. Surviving plants from T1 progenies, that were selected with 560 g ae/ha 2,4-D, were also transplanted into 3-inch pots filled with Metro Mix soil. At 2-4 leaf stage plants were sprayed with either 280, 560, 1120, or 2240 g ae/ha 2,4-D DMA. Plants were graded at 3 and 14 DAT and compared to untransformed control plants. A sampling of T1 event injury data 14DAT may be seen in Table 30.

[3] = molecular target: T1, AAD-12 (v2) (Delftia acidovorans, UniProt P83309); assay: Colorimetric phenol detection assay of AAD-12 activity; type: biochemical; settings: for activity of AAD-12 (v2) on substrate (absorbance at 510 nm, FIG. 3): 4.4 μg AAD-12 (v2), 0.5 mM substrate, 5 minutes
T1 construct: made in house; host or cells: Pseudomonas fluorescens strain MB324 (construct pDAB739)
T1 sequence (P83309 whole entry, looked up, natural form): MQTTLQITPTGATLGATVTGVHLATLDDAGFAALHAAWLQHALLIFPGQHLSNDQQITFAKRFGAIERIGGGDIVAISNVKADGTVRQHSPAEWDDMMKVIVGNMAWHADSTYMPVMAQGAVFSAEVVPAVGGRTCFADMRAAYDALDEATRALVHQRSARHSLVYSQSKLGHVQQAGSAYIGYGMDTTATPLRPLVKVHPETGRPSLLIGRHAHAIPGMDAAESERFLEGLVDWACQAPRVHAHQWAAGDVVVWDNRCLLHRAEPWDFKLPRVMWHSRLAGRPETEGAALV
Procedure: Enzyme activity was measured by colorimetric detection of the product phenol using a protocol modified from that of Fukumori and Hausinger (1993) (J. Biol. Chem. 268: 24311-24317) to enable deployment in a 96-well microplate format. The colorimetric assay has been described for use in measuring the activity of dioxygenases cleaving 2,4-D and dichlorprop to release the product 2,4-dichlorophenol. The color yield from several phenols was compared to that of 2,4-dichlorophenol using the detection method previously described to ascertain which phenol products could be readily detected. […] Pyridinols derived from fluroxypyr and triclopyr produced no significant color. The color yield of 2,4-dichlorophenol was linear and proportional to the concentration of phenol in the assay up to ˜500 μM.
Assays were initiated by addition of the aryloxyalkanoate substrate, enzyme or α-ketoglutarate at time zero. After 5 minutes of incubation at 25° C., the reaction was terminated by addition of 30 μl of a 1:1:1 mix of 50 mM Na EDTA; pH 10 buffer (3.09 g boric acid+3.73 g KCl+44 ml 1 N KOH) and 0.2% 4-aminoantipyrine. Then 10 μl 0.8% potassium ferricyanide was added and after 5 or 10 min, the absorbance at 510 nm was recorded in a spectrophotometric microplate reader. Blanks contained all reagents except for enzyme to account for the occasional slight contamination of some of the substrates by small amounts of phenols.
The results are shown in FIG. 3, which illustrates activity of AAD-12 (v2) on 2,4-D and enantiomers of dichlorprop. 4.4 μg AAD-12 (v2) was incubated with 0.5 mM substrate (1 mM for (R,S)-dichlorprop) and the reaction initiated by addition of α-ketoglutarate. After 5 minutes, the reaction was quenched, and the absorbance at 510 nm determined after addition of colorimetric detection reagents. The background value without enzyme was subtracted.

[4] = test system: T1 AAD-1 (v3) tobacco; assay: Elevated 2,4-D DMA rates in greenhouse tobacco, AAD-1; type: in vivo, Nicotiana tabacum
Source text: T1 AAD-12 (v1) plants from an event segregating 3R:1S when selected with 560 g ai/ha Liberty using the same protocol as previously described. T1 AAD-1 (v3) seed was also planted for transformed tobacco controls (see PCT/US2005/014737). Untransformed KY160 was served as the sensitive control. Plants were sprayed using a track sprayer set to 187 L/ha at 140, 560, 2240, 8960, and 35840 g ae/ha 2,4-D DMA and rated 3 and 14 DAT.

[5] = test system: cotton cotyledonary segments; type: cell-based
Procedure: A dose response study was initiated to test multiple auxin alternatives as a substitute for the use of 2,4-D as a growth regulator in cotton. The alternative auxin tested were 2,4-dichlorprop, dicamba, and picloram. These compounds were tested at 0.2, 2.0, and 20.0 uM concentrations respectively. 2,4-D was used as the control treatment at 0.02 uM concentration. The medium used is the base medium for cotton callus induction (Example 12). Beyond the initial phase of culture, auxin is removed from the medium to prod the tissue toward the regeneration process.

[6] = test system: Pat/Cry1f-Control Arabidopsis; assay: Foliar-applied auxinic herbicides on transformed control Arabidopsis; type: in vivo, Arabidopsis thaliana; settings: Pyridyloxyacetic auxins
Procedure: The ability of AAD-12 (v1) to provide resistance to other aryloxyalkanoate auxin herbicides in transgenic Arabidopsis was determined by foliar application of various substrates. T2 generation Arabidopsis seed was stratified, and sown into selection trays much like that of Arabidopsis (Example 6.4). A transformed-control line containing PAT and the insect resistance gene Cry1F was planted in a similar manner. Seedlings were transferred to individual 3-inch pots in the greenhouse. All plants were sprayed with the use of a track sprayer set at 187 L/ha. The plants were sprayed with a range of pyridyloxyacetate herbicides: 280-2240 g ae/ha triclopyr (Garlon 3A, Dow AgroSciences) and 280-2240 g ae/ha fluroxypyr (Starane, Dow AgroSciences); and the 2,4-D metabolite resulting from AAD-12 activity, 2,4-dichlorophenol (DCP, Sigma) (at a molar equivalent to 280-2240 g ac/ha of 2,4-D, technical grade DCP was used). All applications were formulated in water. Each treatment was replicated 3-4 times. Plants were evaluated at 3 and 14 days after treatment.

In the case of `CNC.O=C(O)COc1ccc(Cl)cc1Cl` [2,4-D DMA], the “Average Brace Root Injury (0-10 Scale)” value [1] is reported as 9, the “Average % injury 14 DAT” value ([2]; 280 g ae/ha) is reported as 85% and the “Average % injury 14 DAT” value ([2]; 560 g ae/ha) is reported as 85%. The “Average % injury 14 DAT” value ([2]; 1120 g ae/ha) was 90% and the “Average % injury 14 DAT” value ([2]; 2240 g ae/ha) was 95%.
For `O=C(O)COc1ccc(Cl)cc1Cl` [2,4-D, 2,4-dichlorophenoxyacetic acid], the “activity of AAD-12 (v2) on substrate (absorbance at 510 nm, FIG. 3)” value [3] was “equivalent to that on (S)-dichlorprop”, the inhibition at 2000 µM ([3]; read-out: Substrate inhibition at 2 mM) was 55% and the “Average % injury 14 DAT” value ([4]; 2240 g ae/ha 2,4-D) was 4%. The “Average % injury 14 DAT” value ([4]; 8960 g ae/ha 2,4-D) was 9%, the “Average % injury 14 DAT” value ([4]; 35840 g ae/ha 2,4-D) was 32% and the “effect on cotton callus generation and growth” value ([5]; highest concentration (20 uM)) was “inhibitory”.
In the case of `C[C@@H](Oc1ccc(Cl)cc1Cl)C(=O)O` [(R)-dichlorprop, R-2,4-dichlorophenoxypropionic acid], the “activity of AAD-12 (v2) on substrate (absorbance at 510 nm, FIG. 3)” value [3] is reported as “minimal activity” and the “callus induction of cotyledonary segments” value ([5]; concentrations tested up to 20 uM) is reported as “not effective”.
In the case of `Nc1c(Cl)c(F)nc(OCC(=O)O)c1Cl` [Fluroxypyr], the “Ave % Injury 14DAT” value ([6]; 280 g ae/ha foliar) is reported as 75* %, the “Ave % Injury 14DAT” value ([6]; 560 g ae/ha foliar) is reported as 75* % and the “Ave % Injury 14DAT” value ([6]; 1120 g ae/ha foliar) is reported as 75* %. For the same compound, the “Ave % Injury 14DAT” value ([6]; 2240 g ae/ha foliar) was 75* %.
In the case of `O=C(O)COc1nc(Cl)c(Cl)cc1Cl` [triclopyr], the “Ave % Injury 14DAT” value ([6]; 280 g ae/ha foliar) is reported as 52%, the “Ave % Injury 14DAT” value ([6]; 560 g ae/ha foliar) is reported as 58% and the “Ave % Injury 14DAT” value ([6]; 1120 g ae/ha foliar) is reported as 75* %. For the same compound, the “Ave % Injury 14DAT” value ([6]; 2240 g ae/ha foliar) was 75* %.
